Measurements from patent US20150313228A1, “SYNERGISTIC HERBICIDAL COMBINATIONS AND METHODS OF USE” (priority 2012, published 2015).

Experiments:
[1] = tested on: broad-leaf and grass weed species; test: Field testing of pre-emergence application of dicamba and acetochlor in Argentina and/or South Africa (Example 10); details: for percent control Y (DIACAMBA OR ATRAZINE ALONE): early rating (14 day); for Y (dicamba alone): late rating (28 day);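 as to all read-outs here: percent weed control in field trials, rated at 14 days (early) and 28 days (late) after treatment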
[2] = tested on: soybean varieties; test: Metribuzin sensitivity or tolerance phenotype of soybean varieties (Table S-3); type: in vivo, Glycine max
Excerpt: To observe the presence or absence of the “metribuzin sensitivity” or metribuzin tolerance phenotypes, soybean plants are typically exposed in early to mid-vegetative growth stages to one or more doses of metribuzin. Typical doses of metribuzin that can elicit a metribuzin sensitivity phenotype can range from about a 1-fold label application rate of a commercially available metribuzin formulation (i.e. about 0.25 pounds per acre) to about a 3-fold label application rate (i.e. about 0.75 pounds per acre) of a commercially available metribuzin formulation. Commercially available formulations containing metribuzin that can be used include, but are not limited to, Authority®MTZ (FMC Corporation, Philadelphia, Pa., USA); Boundary (Syngenta, Wilmington, Del., USA); Canopy® or Lexone® (Dupont, Wilmington, Del., USA); Sencor® (Bayer Crop Science, Research Triangle Park, N.C., USA); or TriCor® DF (United Phosphorus, Inc., King of Prussia, Pa., USA. In certain embodiments, the commercially available metribuzin formulation used is TriCor® 75DF. In certain embodiments, doses of metribuzin that can elicit a metribuzin sensitivity phenotype can range from about a 1 fold application rate of about 0.25 pounds per acre to about a three fold application rate of 0.75 pounds per acre.
The metribuzin sensitivity phenotype can be observed approximately one week to three weeks after herbicide application in certain soybean varieties that are sensitive to metribuzin. Metribuzin is typically applied during pre and post-emergent vegetative growth stages. In certain embodiments of these methods, metribuzin can be applied to the soil about 2 days prior to soybean seed planting and activated by irrigation of the planted seed to score for the presence of the metribuzin sensitivity phenotype. Genotypes provided herein are especially useful for providing metribuzin tolerance to plants exposed to metribuzin by a pre-emergence soil drench. As discussed herein, the vegetative stages of soybean are as follows: VE (emergence), VC (cotyledon stage), V1 (first trifoliate leaf), V2 (second trifoliate leaf), V3 (third trifoliate leaf), V(n) (nth trifoliate leaf), and V6 (flowering will soon start). As discussed herein, the reproductive stages of soybean are as follows: R1 (beginning bloom), R2 (full bloom), R3 (beginning pod), R4 (full pod), R5 (beginning seed), R6 (full seed), R7 (beginning maturity) and R8 (full maturity). A description of the soybean vegetative and reproductive stages can be found on the World Wide Web (internet) at ag.ndsu.edu/pubs/plantsci/rowcrops/a1174/a1174w.htm (North Dakota State University publication A-1174, June 1999, Reviewed and Reprinted August 2004).
A rating scale that evaluates the degree of metribuzin sensitivity can also be employed to identify “metribuzin sensitive” and “metribuzin tolerant” plants. An exemplary and non-limiting scale for evaluating the Metribuzin sensitivity phenotype is as follows, where a low number corresponds to a “metribuzin tolerance” phenotype and the a high number correlates to a “metribuzin sensitivity” phenotype:
A non-limiting and exemplary list of soybean plants that comprise genomic regions associated with either a metribuzin sensitivity or a metribuzin tolerance phenotype are provided herewith in Table S-3.

Structure (SMILES): COc1c(Cl)ccc(Cl)c1C(=O)O [Dicamba, 3,6-dichloro-2-methoxy benzoic acid]
- percent control Y (DIACAMBA OR ATRAZINE ALONE) ([1]; AMADE, 560 g/ha): 99.3%
- Y (dicamba alone) ([1]; AMADE, 560 g/ha): 83.1%
- percent control Y (DIACAMBA OR ATRAZINE ALONE) ([1]; AMAQU, 280 g/ha): 52.9%
- Y (dicamba alone) ([1]; AMAQU, 280 g/ha): 40.6%
- percent control Y (DIACAMBA OR ATRAZINE ALONE) ([1]; AMAQU, 560 g/ha): 61.4%
- Y (dicamba alone) ([1]; AMAQU, 560 g/ha): 54.3%
- percent control Y (DIACAMBA OR ATRAZINE ALONE) ([1]; ANOCR, 280 g/ha): 53.0%
- Y (dicamba alone) ([1]; ANOCR, 280 g/ha): 40.5%
- percent control Y (DIACAMBA OR ATRAZINE ALONE) ([1]; ANOCR, 560 g/ha): 66.1%
- Y (dicamba alone) ([1]; ANOCR, 560 g/ha): 54.5%
- percent control Y (DIACAMBA OR ATRAZINE ALONE) ([1]; BIDPI, 280 g/ha): 2.3%
- Y (dicamba alone) ([1]; BIDPI, 280 g/ha): 5.0%
- percent control Y (DIACAMBA OR ATRAZINE ALONE) ([1]; BIDPI, 560 g/ha): 74.5%
- Y (dicamba alone) ([1]; BIDPI, 560 g/ha): 72.5%
- Y (dicamba alone) ([1]; BRAER, 560 g/ha): 67.5%
- percent control Y (DIACAMBA OR ATRAZINE ALONE) ([1]; CHEAL, 280 g/ha): 56.7%
- Y (dicamba alone) ([1]; CHEAL, 280 g/ha): 38.2%
- percent control Y (DIACAMBA OR ATRAZINE ALONE) ([1]; CHEAL, 560 g/ha): 96.7%
- Y (dicamba alone) ([1]; CHEAL, 560 g/ha): 86.7%
- Y (dicamba alone) ([1]; CHRGA, 280 g/ha): 6.2%
- percent control Y (DIACAMBA OR ATRAZINE ALONE) ([1]; CHRGA, 560 g/ha): 98.0%
- Y (dicamba alone) ([1]; CHRGA, 560 g/ha): 100.0%
- percent control Y (DIACAMBA OR ATRAZINE ALONE) ([1]; COMBE, 280 g/ha): 2.7%
- Y (dicamba alone) ([1]; COMBE, 280 g/ha): 10.0%
- percent control Y (DIACAMBA OR ATRAZINE ALONE) ([1]; COMBE, 560 g/ha): 75.0%
- Y (dicamba alone) ([1]; COMBE, 560 g/ha): 76.3%
- percent control Y (DIACAMBA OR ATRAZINE ALONE) ([1]; CONFA, 280 g/ha): 1.3%
- Y (dicamba alone) ([1]; CONFA, 280 g/ha): 6.2%
- percent control Y (DIACAMBA OR ATRAZINE ALONE) ([1]; CONFA, 560 g/ha): 17.5%
- Y (dicamba alone) ([1]; CONFA, 560 g/ha): 55.0%
- percent control Y (DIACAMBA OR ATRAZINE ALONE) ([1]; CYNDA, 280 g/ha): 28.8%
- percent control Y (DIACAMBA OR ATRAZINE ALONE) ([1]; CYNDA, 560 g/ha): 47.7%
- percent control Y (DIACAMBA OR ATRAZINE ALONE) ([1]; CYPES, 280 g/ha): 1.0%
- Y (dicamba alone) ([1]; CYPES, 280 g/ha): 5.0%
- percent control Y (DIACAMBA OR ATRAZINE ALONE) ([1]; CYPES, 560 g/ha): 65.0%
- Y (dicamba alone) ([1]; CYPES, 560 g/ha): 63.3%
- percent control Y (DIACAMBA OR ATRAZINE ALONE) ([1]; CYPRO, 280 g/ha): 42.3%
- Y (dicamba alone) ([1]; CYPRO, 280 g/ha): 0.8%
- percent control Y (DIACAMBA OR ATRAZINE ALONE) ([1]; CYPRO, 560 g/ha): 44.4%
- Y (dicamba alone) ([1]; CYPRO, 560 g/ha): 15.4%
- percent control Y (DIACAMBA OR ATRAZINE ALONE) ([1]; DATFE, 280 g/ha): 18.5%
- Y (dicamba alone) ([1]; DATFE, 280 g/ha): 16.7%
- percent control Y (DIACAMBA OR ATRAZINE ALONE) ([1]; DATFE, 560 g/ha): 59.6%
- Y (dicamba alone) ([1]; DATFE, 560 g/ha): 58.5%
- percent control Y (DIACAMBA OR ATRAZINE ALONE) ([1]; DIGER, 280 g/ha): 2.5%
- Y (dicamba alone) ([1]; DIGER, 280 g/ha): 10.0%
- percent control Y (DIACAMBA OR ATRAZINE ALONE) ([1]; DIGER, 560 g/ha): 98.0%
- Y (dicamba alone) ([1]; DIGER, 560 g/ha): 100.0%
- percent control Y (DIACAMBA OR ATRAZINE ALONE) ([1]; DIGSA, 280 g/ha): 32.7%
- Y (dicamba alone) ([1]; DIGSA, 280 g/ha): 23.8%
- percent control Y (DIACAMBA OR ATRAZINE ALONE) ([1]; DIGSA, 560 g/ha): 45.6%
- Y (dicamba alone) ([1]; DIGSA, 560 g/ha): 32.7%
- Y (dicamba alone) ([1]; DTTAE, 280 g/ha): 6.2%
- Y (dicamba alone) ([1]; DTTAE, 560 g/ha): 100.0%
- percent control Y (DIACAMBA OR ATRAZINE ALONE) ([1]; ELEAF, 280 g/ha): 100.0%
- Y (dicamba alone) ([1]; ELEAF, 280 g/ha): 8.0%
- percent control Y (DIACAMBA OR ATRAZINE ALONE) ([1]; ELEAF, 560 g/ha): 100.0%
- Y (dicamba alone) ([1]; ELEAF, 560 g/ha): 97.5%
- percent control Y (DIACAMBA OR ATRAZINE ALONE) ([1]; HIBCA, 280 g/ha): 1.8%
- Y (dicamba alone) ([1]; HIBCA, 280 g/ha): 11.3%
- percent control Y (DIACAMBA OR ATRAZINE ALONE) ([1]; HIBCA, 560 g/ha): 42.5%
- Y (dicamba alone) ([1]; HIBCA, 560 g/ha): 55.0%
- Y (dicamba alone) ([1]; IPOBA, 280 g/ha): 8.8%
- Y (dicamba alone) ([1]; IPOBA, 560 g/ha): 0.0%
- percent control Y (DIACAMBA OR ATRAZINE ALONE) ([1]; IPOPD, 280 g/ha): 2.6%
- Y (dicamba alone) ([1]; IPOPD, 280 g/ha): 10.0%
- percent control Y (DIACAMBA OR ATRAZINE ALONE) ([1]; IPOPD, 560 g/ha): 21.3%
- Y (dicamba alone) ([1]; IPOPD, 560 g/ha): 45.0%
- percent control Y (DIACAMBA OR ATRAZINE ALONE) ([1]; OVERALL, 280 g/ha): 36.2%
- percent control Y (DIACAMBA OR ATRAZINE ALONE) ([1]; OVERALL, 560 g/ha): 57.4%
- Y (dicamba alone) ([1]; Overall, 280 g/ha): 29.8%
- Y (dicamba alone) ([1]; Overall, 560 g/ha): 51.7%
- percent control Y (DIACAMBA OR ATRAZINE ALONE) ([1]; PERCENT WEED FREE, 280 g/ha): 64.5%
- percent control Y (DIACAMBA OR ATRAZINE ALONE) ([1]; PERCENT WEED FREE, 560 g/ha): 74.2%
- percent control Y (DIACAMBA OR ATRAZINE ALONE) ([1]; POROL, 280 g/ha): 35.8%
- Y (dicamba alone) ([1]; POROL, 280 g/ha): 27.8%
- percent control Y (DIACAMBA OR ATRAZINE ALONE) ([1]; POROL, 560 g/ha): 49.2%
- Y (dicamba alone) ([1]; POROL, 560 g/ha): 45.0%
- Y (dicamba alone) ([1]; Percent Weed Free, 280 g/ha): 43.4%
- Y (dicamba alone) ([1]; Percent Weed Free, 560 g/ha): 54.3%
- percent control Y (DIACAMBA OR ATRAZINE ALONE) ([1]; RCHBR, 280 g/ha): 2.4%
- Y (dicamba alone) ([1]; RCHBR, 280 g/ha): 8.5%
- percent control Y (DIACAMBA OR ATRAZINE ALONE) ([1]; RCHBR, 560 g/ha): 89.0%
- Y (dicamba alone) ([1]; RCHBR, 560 g/ha): 88.8%
- percent control Y (DIACAMBA OR ATRAZINE ALONE) ([1]; TAGMI, 280 g/ha): 0.0%
- Y (dicamba alone) ([1]; TAGMI, 280 g/ha): 0.0%
- percent control Y (DIACAMBA OR ATRAZINE ALONE) ([1]; TAGMI, 560 g/ha): 92.5%
- Y (dicamba alone) ([1]; TAGMI, 560 g/ha): 64.3%
- percent control Y (DIACAMBA OR ATRAZINE ALONE) ([1]; XANST, 280 g/ha): 15.3%
- Y (dicamba alone) ([1]; XANST, 280 g/ha): 28.8%
- percent control Y (DIACAMBA OR ATRAZINE ALONE) ([1]; XANST, 560 g/ha): 43.3%
- Y (dicamba alone) ([1]; XANST, 560 g/ha): 32.5%

Structure (SMILES): CSc1nnc(C(C)(C)C)c(=O)n1N [Metribuzin, 4-amino-6-(1,1-dimethylethyl)-3-(methylthio)-1,2,4-triazin-5(4H)-one]
- METRIBUZIN PHENOTYPE ([2]; soybean variety AG4531): Tolerant
- METRIBUZIN PHENOTYPE ([2]; soybean variety AG4730): Tolerant
- METRIBUZIN PHENOTYPE ([2]; soybean variety AG6130): Sensitive
- METRIBUZIN PHENOTYPE ([2]; soybean variety AG6730): Sensitive
- METRIBUZIN PHENOTYPE ([2]; soybean variety AG6931): Tolerant
- METRIBUZIN PHENOTYPE ([2]; soybean variety BURLISON (from TRACY)): Sensitive
- METRIBUZIN PHENOTYPE ([2]; soybean variety DASSEL (from PAGODA)): Sensitive
- METRIBUZIN PHENOTYPE ([2]; soybean variety H7550): Sensitive
- METRIBUZIN PHENOTYPE ([2]; soybean variety PAGODA): Sensitive
- METRIBUZIN PHENOTYPE ([2]; soybean variety TRACY): Sensitive
- METRIBUZIN PHENOTYPE ([2]; soybean variety Tracy-M): Tolerant
